What was measured:
[1] = target: T1, Recombinant ROCK2 (amino acids 5-554) (Homo sapiens, UniProt O75116); test: ROCK inhibition assay, LANCE Ultra TR-FRET kinase assay (ROCK2); assay type: biochemical; details: 4 μM ATP, 50 nM ULight-CREBtide substrate
T1 construct: ROCK2 (amino acids 5-554); by word order, ROCK2 from SignalChem
In short: (§1)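 LANCE Ultra TR-FRET kinase assay with recombinant ROCK1 (aa 1-477) or ROCK2 (aa 5-554), 50 nM ULight-CREBtide and ATP at 1 μM (ROCK1) or 4 μM (ROCK2) in HEPES pH 7.5 with MgCl2, 1 h at room temperature. EDTA stop with Eu anti-phospho-CREB Ser133 antibody; 665/615 nm read gives IC50.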

[2] = target: T2, Recombinant ROCK1 (amino acids 1-477) (Homo sapiens, UniProt Q13464); test: ROCK inhibition assay, LANCE Ultra TR-FRET kinase assay (ROCK1); assay type: biochemical; details: 1 μM ATP, 50 nM ULight-CREBtide substrate
T2 construct: Recombinant ROCK1 (amino acids 1-477); by word order, ROCK1 from Carna Biosciences
In short: as §1

[3] = test system: ROCK1/2 in A7r5 cells (pMLC2 levels); test: Inhibition of ROCK1/2 in A7r5 cells, cell-based ELISA of phospho-myosin light chain (pMLC2, Thr18/Ser19); details: Rattus norvegicus, 1.5 h, treated with test compounds for 90 minutes, read-out: pMLC2 (cellular EC50)
Description: Inhibition of ROCK1/2 in A7r5 cells was measured through cell-based ELISA assay. Rat aortic smooth muscle cell line A7r5 cells were maintained and treated in DMEM medium with 10% fetal bovine serum. Cells were seeded with 5,000 cells/well in 96 well plates for 24 hours and subsequently treated with test compounds for 90 minutes. Cells were then fixed and processed according to the In-Cell ELISA Colrimetric Detection Kit manual (Thermo Scientific). Cellular phospho-myosin light chain (pMLC2, Thr18/Ser19) levels were determined after treatment with DMSO control or a test compound using the In-Cell ELISA kit.
The resulting data was applied to the following formula ‘[1-(compound/DMSO)]×100%’ to calculate the percent inhibition rate. pMLC2 data obtained from 9 points 3-fold serial dilution of compounds were applied to the nonlinear regression curve fit function of the GraphPad Prism software to calculate the cellular EC50 values.

T1 sequence (O75116 5-554): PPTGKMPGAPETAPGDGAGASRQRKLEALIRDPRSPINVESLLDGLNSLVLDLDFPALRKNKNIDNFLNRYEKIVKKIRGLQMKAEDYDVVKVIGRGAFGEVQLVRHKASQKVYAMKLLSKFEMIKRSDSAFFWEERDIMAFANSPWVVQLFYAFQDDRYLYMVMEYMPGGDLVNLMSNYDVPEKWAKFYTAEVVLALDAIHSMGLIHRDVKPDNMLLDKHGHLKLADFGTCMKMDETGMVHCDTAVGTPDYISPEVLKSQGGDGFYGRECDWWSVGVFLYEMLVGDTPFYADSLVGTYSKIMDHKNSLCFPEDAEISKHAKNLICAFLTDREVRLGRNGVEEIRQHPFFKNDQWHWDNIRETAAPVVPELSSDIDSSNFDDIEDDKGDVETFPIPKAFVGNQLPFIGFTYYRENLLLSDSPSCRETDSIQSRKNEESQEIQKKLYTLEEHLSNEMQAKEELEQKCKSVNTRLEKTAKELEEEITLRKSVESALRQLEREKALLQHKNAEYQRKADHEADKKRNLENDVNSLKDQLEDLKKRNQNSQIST
T2 sequence (Q13464 1-477): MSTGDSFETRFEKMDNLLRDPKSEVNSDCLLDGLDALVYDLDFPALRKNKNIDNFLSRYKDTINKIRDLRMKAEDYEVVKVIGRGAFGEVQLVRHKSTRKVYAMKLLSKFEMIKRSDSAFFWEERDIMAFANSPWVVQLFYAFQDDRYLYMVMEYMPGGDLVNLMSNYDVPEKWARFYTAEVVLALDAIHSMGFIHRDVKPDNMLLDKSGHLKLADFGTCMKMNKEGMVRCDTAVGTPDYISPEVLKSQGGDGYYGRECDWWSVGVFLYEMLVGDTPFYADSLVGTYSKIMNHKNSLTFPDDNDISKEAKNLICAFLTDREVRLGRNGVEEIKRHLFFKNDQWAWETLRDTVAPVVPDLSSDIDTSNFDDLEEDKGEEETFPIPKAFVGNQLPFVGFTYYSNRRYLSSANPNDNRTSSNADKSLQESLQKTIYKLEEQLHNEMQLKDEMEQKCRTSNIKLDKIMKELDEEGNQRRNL

`CNC(=O)c1cccc([C@@H](C)n2cnc3cc(-c4cn[nH]c4C(F)(F)F)ccc3c2=O)c1` [Compound 440, (R)—N-methyl-3-(1-(4-oxo-7-(5-(trifluoromethyl)-1H-pyrazol-4-yl)quinazolin-3(4H)-yl)ethyl)benzamide] was tested, and the IC50 [1] was < 10 nM, the IC50 [2] was 11 to 100 nM and the EC50 [3] was 101 to 500 nM.

`CNC(=O)c1cccc(Cn2ccc3cc(-c4conc4C)ccc3c2=O)c1` [Compound 277] was tested, and the IC50 [1] was < 10 nM, the IC50 [2] was 101 to 500 nM and the EC50 [3] was 501 to 1000 nM.

For `COc1cccc(Cn2ccc3cc(-c4ccnc(N)c4)ccc3c2=O)c1` [Compound 24], the IC50 [1] was 10 to 100 nM, the IC50 [2] was > 501 nM and the EC50 [3] was 101 to 500 nM.

With `COc1cccc(Cn2ccc3cc(-c4ccncc4)ccc3c2=O)c1` [Compound 22] the IC50 [1] was < 10 nM, the IC50 [2] was < 10 nM and the EC50 [3] was < 100 nM.

With `Nc1cc(-c2ccc3c(=O)n(Cc4cccc(C(=O)Nc5ccc6c(c5)CCNC6)c4)ccc3c2)ccn1` [Compound 188] the IC50 [1] was < 10 nM, the IC50 [2] was 11 to 100 nM and the EC50 [3] was < 100 nM.

Work on `Cn1nccc1-c1ccc2c(=O)n(Cc3cc(F)cc(C(=O)N[C@H]4CC[C@@H](O)CC4)c3)ccc2c1` [Compound 165] yielded an IC50 [1] of 10 to 100 nM, an IC50 [2] of 101 to 500 nM and an EC50 [3] of 501 to 1000 nM.

`CNC(=O)c1cc(F)cc(Cn2ccc3cc(-c4cn[nH]c4C(F)(F)F)ccc3c2=O)c1` [Compound 281] was tested, and the IC50 [1] was < 10 nM, the IC50 [2] was 11 to 100 nM and the EC50 [3] was 101 to 500 nM.

With `Cc1nocc1-c1ccc2c(=O)n(Cc3cccc(O)c3)ccc2c1` [Compound 10] the IC50 [1] was < 10 nM, the IC50 [2] was 11 to 100 nM and the EC50 [3] was < 100 nM.

With `Cc1nocc1-c1ccc2c(=O)n(Cc3cccc(C(=O)NC4CCN(CC(F)F)CC4)c3)ccc2c1` [Compound 86] the IC50 [1] was < 10 nM, the IC50 [2] was 11 to 100 nM and the EC50 [3] was < 100 nM.

`CNC(=O)c1cc(F)cc(Cn2ccc3cc(-c4conc4C)ccc3c2=O)c1` [Compound 315] was tested, and the IC50 [1] was < 10 nM, the IC50 [2] was 11 to 100 nM and the EC50 [3] was 501 to 1000 nM.

Work on `Cc1nocc1-c1ccc2c(=O)n(Cc3cccc(C(=O)N[C@H]4CC[C@H](O)CC4)c3)ccc2c1` [Compound 75] yielded an IC50 [1] of 10 to 100 nM, an IC50 [2] of 101 to 500 nM and an EC50 [3] of 101 to 500 nM.

In the case of `CN(C)Cc1ccccc1Cn1ccc2cc(-c3ccnc(N)c3)ccc2c1=O` [Compound 25], the IC50 [1] is reported as < 10 nM, the IC50 [2] is reported as 11 to 100 nM and the EC50 [3] is reported as 101 to 500 nM.

`Cc1nocc1-c1ccc2c(=O)n(Cc3cccc(C(=O)NCC4CCN(CC(F)F)CC4)c3)ccc2c1` [Compound 82] was tested, and the IC50 [1] was 10 to 100 nM, the IC50 [2] was 101 to 500 nM and the EC50 [3] was < 100 nM.

For `CNC(=O)c1cccc(Cn2ccc3cc(-c4cn[nH]c4C(F)(F)F)ccc3c2=O)c1` [Compound 280], the IC50 [1] was < 10 nM, the IC50 [2] was 11 to 100 nM and the EC50 [3] was 501 to 1000 nM.

In the case of `Cc1nocc1-c1ccc2c(=O)n(Cc3cccc(C(=O)NC4COC4)c3)ccc2c1` [Compound 146], the IC50 [1] is reported as 10 to 100 nM, the IC50 [2] is reported as 101 to 500 nM and the EC50 [3] is reported as 501 to 1000 nM.

With `Cn1nccc1-c1ccc2c(=O)n(Cc3cccc(C(=O)NC4CCN(CC(F)F)CC4)c3)ccc2c1` [Compound 107] the IC50 [1] was < 10 nM, the IC50 [2] was 11 to 100 nM and the EC50 [3] was 101 to 500 nM.

With `CNC(=O)c1cccc(Cn2ccc3cc(-c4ccnc(N)c4)ccc3c2=O)c1` [Compound 326] the IC50 [1] was < 10 nM, the IC50 [2] was 11 to 100 nM and the EC50 [3] was 101 to 500 nM.

For `Cc1n[nH]cc1-c1ccc2c(=O)n(Cc3cccc(C(=O)NCCc4ccccn4)c3)ccc2c1` [Compound 31], the IC50 [1] was < 10 nM, the IC50 [2] was < 10 nM and the EC50 [3] was < 100 nM.

In the case of `Nc1cc(-c2ccc3c(=O)n(Cc4cccc(C(=O)NCCc5ccccn5)c4)ccc3c2)ccn1` [Compound 186], the IC50 [1] is reported as < 10 nM, the IC50 [2] is reported as 11 to 100 nM and the EC50 [3] is reported as < 100 nM.

With `CNC(=O)c1cccc(Cn2ccc3cc(-c4ccnn4C)ccc3c2=O)c1` [Compound 320] the IC50 [1] was 10 to 100 nM, the IC50 [2] was 101 to 500 nM and the EC50 [3] was > 1000 nM.

For `Cn1nccc1-c1ccc2c(=O)n(Cc3cccc(O)c3)ccc2c1` [Compound 12], the IC50 [1] was < 10 nM, the IC50 [2] was 11 to 100 nM and the EC50 [3] was 101 to 500 nM.

Compound `CNC(=O)c1cc(F)cc(Cn2ccc3cc(-c4ccnn4C)ccc3c2=O)c1` [Compound 323] has an IC50 [1] of 10 to 100 nM, an IC50 [2] of 101 to 500 nM and an EC50 [3] of 101 to 500 nM.

In the case of `CNC(=O)c1cccc([C@@H](C)n2cnc3cc(-c4conc4C)ccc3c2=O)c1` [Compound 469], the IC50 [1] is reported as < 10 nM, the IC50 [2] is reported as 11 to 100 nM and the EC50 [3] is reported as < 100 nM.

`Nc1cc(-c2ccc3c(=O)n(Cc4cccc(C(=O)NCCc5ccccn5)c4)cnc3c2)ccn1` [Compound 437] was tested, and the IC50 [1] was < 10 nM, the IC50 [2] was 11 to 100 nM and the EC50 [3] was 101 to 500 nM.

Source: patent US12064426B2, “Selective inhibitors of ROCK1 and ROCK2 protein kinases and uses thereof” (GENOSCO Inc., priority 2021, dated 2024)
